Results reported in the supplement of paper PMC11061612.

What was measured:
[1] = test system: KURAMOCHI (Ovarian Carcinoma); experiment: combination Emax (second highest fraction inhibited in the dose matrix, 72 h); higher = more inhibition; extreme values may be limits of the assay
Outline: (§1)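 Cell lines in DMEM/F12 or RPMI with 10% FBS were plated in 1536-well plates, held 24 hours at 37°C, 5% CO2, then given two-drug dose matrices for 72 hours (DMSO typically 0.2%). Viability was read by CellTiter-Glo 2.0 luminescence and scaled as inhibition from 0 (vehicle wells) to 1 (blank wells). Combination Emax is the second-highest inhibition in the matrix; Bliss excess is observed combination effect minus expected EA + EB − EA·EB, EA and EB being single-agent effects.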

42-MG-BA (Glioblastoma) = experiment: as above
Outline: as §1

[2] = test system: LB831-BLC (Bladder Carcinoma); experiment: as above
Outline: as §1

[3] = test system: UM-UC-3 (Bladder Carcinoma); experiment: as above
Outline: as §1

[4] = test system: HCC-78 (Lung Adenocarcinoma); experiment: as above
Outline: as §1

NOS-1 (Osteosarcoma) = experiment: as above
Outline: as §1

[5] = test system: CAL-148 (Breast Carcinoma); experiment: as above
Outline: as §1

NB10 (Neuroblastoma) = experiment: as above
Outline: as §1

[6] = test system: SNU-5 (Gastric Carcinoma); experiment: as above
Outline: as §1

[7] = test system: RO82-W-1 (Thyroid Gland Carcinoma); experiment: as above
Outline: as §1

[8] = test system: HCC1806 (Breast Carcinoma); experiment: as above
Outline: as §1

[9] = test system: Ramos-2G6-4C10 (Burkitt's Lymphoma); experiment: as above
Outline: as §1

[10] = test system: KP-1N (Pancreatic Carcinoma); experiment: as above
Outline: as §1

[11] = test system: EC-GI-10 (Esophageal Squamous Cell Carcinoma); experiment: as above
Outline: as §1

[12] = test system: LB831-BLC (Bladder Carcinoma); experiment: Bliss excess, mean over the matrix (fraction); higher = more synergy
Outline: as §1

[13] = test system: Calu-3 (Lung Adenocarcinoma); experiment: as above
Outline: as §1

[14] = test system: HCC-78 (Lung Adenocarcinoma); experiment: as above
Outline: as §1

[15] = test system: LNCaP-Clone-FGC (Prostate Carcinoma); experiment: as above
Outline: as §1

AGS (Gastric Carcinoma) = experiment: as above
Outline: as §1

[16] = test system: SNU-5 (Gastric Carcinoma); experiment: as above
Outline: as §1
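Throughout, for Bliss excess, mean over the matrix: after 72 h of two-drug dosing.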

SMILES	combination Emax [1]	combination Emax (42-MG-BA (Glioblastoma))	combination Emax [2]	combination Emax [3]	combination Emax [4]	combination Emax (NOS-1 (Osteosarcoma))	combination Emax [5]	combination Emax (NB10 (Neuroblastoma))	combination Emax [6]	combination Emax [7]	combination Emax [8]	combination Emax [9]	combination Emax [10]	combination Emax [11]	Bliss excess [12]	Bliss excess [13]	Bliss excess [14]	Bliss excess [15]	Bliss excess (AGS (Gastric Carcinoma))	Bliss excess [16]
CN(C)CCCOc1ccc(-c2ccc3ncc4c(c3c2)n(C2CCOCC2)c(=O)n4C)cn1 [AZD0156] + C[C@@H]1COCCN1C2=NC(=NC(=C2)C3(CC3)[S@](=N)(=O)C)C4=C5C=CNC5=NC=C4 [AZD6738] (first compound max 1 µM, 7x7, partner max 10 µM)	0.597	0.701	0.23	0.475	0.613	0.255	0.791	0.87	0.882	0.34	0.937	0.981	0.399	0.724	-0.0333	-0.0205	-0.0031	-0.056	0.0232	-0.0347
Cc1c2c(nn1C)CSCc1cc(n(C)n1)CSc1cc(c3ccccc3c1)OCCCc1c(C(=O)O)n(C)c3c-2c(Cl)ccc13 [AZD5991] + CC1(C)CCC(CN2CCN(c3ccc(C(=O)NS(=O)(=O)c4ccc(NCC5CCOCC5)c([N+](=O)[O-])c4)c(Oc4cnc5[nH]ccc5c4)c3)CC2)=C(c2ccc(Cl)cc2)C1 [Venetoclax] (first compound max 1 µM, 7x7, partner max 1 µM)	0.501	0.963	0.439	0.171	0.158	0.889	0.411	0.481	0.147	0.255	0.596	0.985	0.119	0.448	-0.0229	0.0015	-0.0245	-0.0476	0.0132	-0.0127
Cc1c2c(nn1C)CSCc1cc(n(C)n1)CSc1cc(c3ccccc3c1)OCCCc1c(C(=O)O)n(C)c3c-2c(Cl)ccc13 [AZD5991] + Cn1cnc2c(F)c(Nc3ccc(Br)cc3Cl)c(C(=O)NOCCO)cc21 [Selumetinib] (first compound max 1 µM, 7x7, partner max 3 µM)	0.485	0.988	0.392	0.28	0.253	0.895	0.329	0.396	0.495	0.311	0.667	0.998	0.189	0.758	-0.018	-0.015	-0.0245	-0.0301	0.186	0.0262
COc1cccc(OCCCN)c1-c1cc(Nc2cnc(C#N)cn2)n[nH]1 [Prexasertib] + CN(C)CCCOc1ccc(-c2ccc3ncc4c(c3c2)n(C2CCOCC2)c(=O)n4C)cn1 [AZD0156] (first compound max 1 µM, 7x7, partner max 1 µM)	0.706	0.937	0.413	0.537	0.685	0.332	0.642	0.928	0.926	0.572	0.967	1	0.298	0.735	0.0252	-0.0668	-0.0463	-0.0374	-0.0052	-0.0703
CS(=O)(=O)CCNCc1ccc(-c2ccc3ncnc(Nc4ccc(OCc5cccc(F)c5)c(Cl)c4)c3c2)o1 [Lapatinib] + C[C@@H](Oc1cc(-c2cnn(C3CCNCC3)c2)cnc1N)c1c(Cl)ccc(F)c1Cl [Crizotinib] (first compound max 10 µM, 7x7, partner max 10 µM)	0.721	0.767	0.826	0.307	0.882	0.985	0.771	0.796	0.927	0.203	0.95	0.898	0.809	0.986	-0.0321	0.0052	-0.0289	-0.0575	0.0118	0.0306
CC(=O)c1c(C)c2cnc(Nc3ccc(N4CCNCC4)cn3)nc2n(C2CCCC2)c1=O [Palbociclib] + Cn1cnc2c(F)c(Nc3ccc(Br)cc3Cl)c(C(=O)NOCCO)cc21 [Selumetinib] (first compound max 10 µM, 7x7, partner max 10 µM)	0.227	0.232	0.223	0.246	0.168	0.826	0.303	0.579	0.649	0.178	0.414	0.336	0.196	0.493	-0.0339	-0.0095	-0.0189	0.0237	-0.0123	0.0031
